Test results as given in US10519152B2, “Compounds and their use in treating cancer” (AstraZeneca AB, priority 2017, dated 2019).

Molecular target: T1, Estrogen Receptor (ERα) in MCF-7 human ductal carcinoma breast cell line (Homo sapiens, UniProt P03372)
T1 construct: endogenous in cells; host or cells: MCF-7
T1 sequence (P03372 1-595): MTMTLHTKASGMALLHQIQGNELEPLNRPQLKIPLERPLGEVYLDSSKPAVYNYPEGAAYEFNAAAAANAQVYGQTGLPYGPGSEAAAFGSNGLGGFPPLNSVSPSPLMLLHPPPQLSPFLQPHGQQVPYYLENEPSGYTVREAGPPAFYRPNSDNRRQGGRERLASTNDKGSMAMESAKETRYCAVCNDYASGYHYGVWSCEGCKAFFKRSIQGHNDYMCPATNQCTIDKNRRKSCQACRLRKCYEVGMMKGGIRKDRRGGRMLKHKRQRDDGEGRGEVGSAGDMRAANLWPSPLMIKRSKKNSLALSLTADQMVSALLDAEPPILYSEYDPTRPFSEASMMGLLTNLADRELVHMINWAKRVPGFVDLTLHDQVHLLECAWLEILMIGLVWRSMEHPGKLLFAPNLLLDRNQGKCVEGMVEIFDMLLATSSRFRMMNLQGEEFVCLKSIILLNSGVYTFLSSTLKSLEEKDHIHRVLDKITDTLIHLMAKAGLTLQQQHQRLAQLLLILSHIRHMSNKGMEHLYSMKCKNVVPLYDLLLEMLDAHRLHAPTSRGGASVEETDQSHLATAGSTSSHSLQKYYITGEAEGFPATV
Test: MCF-7 ER degradation assay (cell based immuno-fluorescence)
Settings: MCF-7 cells; for ER degradation ≥ 90% at 0.3 μM: ER degradation by fulvestrant at 0.3 μM is defined as 100%; for DC50: 18-22 hours incubation, 50% reduction of ERα expression, single experiment or average of two or more, read-out: MCF-7 ER degradation IC50
Outline: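 MCF-7 human ductal carcinoma breast cells were seeded at 3.75×10^4 cells per mL (40 μL per well) in 384 well plates with phenol red free DMEM containing 2 mM L-Glutamine and 5% (v/v) Charcoal/Dextran treated foetal calf serum. After overnight culture, compounds were acoustically dispensed, incubated 18-22 hours, then cells were formaldehyde-fixed and immunostained for ERα.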

SMILES | ER degradation ≥ 90% at 0.3 μM | DC50 [nM]
Cc1ncsc1-c1ccc(CNC(=O)[C@@H]2C[C@@H](O)CN2C(=O)[C@@H](NC(=O)COCCOCCNC(=O)/C=C/c2cc(F)c([C@@H]3c4[nH]c5ccccc5c4C[C@@H](C)N3CC(C)(C)F)c(F)c2)C(C)(C)C)cc1 [Example 58, (2S,4R)-1-((S,E)-2-(tert-butyl)-15-(3,5-difluoro-4-((1R,3R)-2-(2-fluoro-2-methylpropyl)-3-methyl-2,3,4,9-tetrahydro-1H-pyrido[3,4-b]indol-1-yl)phenyl)-4,13-dioxo-6,9-dioxa-3,124-diazapentadec-4-enoyl)-4-hydroxy-N-(4-(4-methylthiazol-5-yl)benzyl)pyrrolidine-2-carboxamide, Trifluoroacetic Acid] | • | 0.4
Cc1ncsc1-c1ccc(CNC(=O)[C@@H]2C[C@@H](O)CN2C(=O)[C@@H](NC(=O)COCCNC(=O)/C=C/c2cc(F)c([C@@H]3c4[nH]c5ccccc5c4C[C@@H](C)N3CC(C)(C)F)c(F)c2)C(C)(C)C)cc1 [Example 62, (2S,4R)-1-((S)-2-(2-(2-((E)-3-(3,5-difluoro-4-((1R,3R)-2-(2-fluoro-2-methylpropyl)-3-methyl-2,3,4,9-tetrahydro-1H-pyrido[3,4-b]indol-1-yl)phenyl)acrylamido)ethoxy)acetamido)-3,3-dimethylbutanoyl)-4-hydroxy-N-(4-(4-methylthiazol-5-yl)benzyl)pyrrolidine-2-carboxamide, Trifluoroacetic Acid] | • | 0.6
Cc1ncsc1-c1ccc(CNC(=O)[C@@H]2C[C@@H](O)CN2C(=O)[C@@H](NC(=O)COCc2ccc(COc3cc(F)c([C@@H]4c5[nH]c6ccccc6c5C[C@@H](C)N4CC(C)(C)F)c(F)c3)cn2)C(C)(C)C)cc1 [Example 86, (2S,4R)-1-((S)-2-(2-((5-((3,5-Difluoro-4-((1R,3R)-2-(2-fluoro-2-methylpropyl)-3-methyl-2,3,4,9-tetrahydro-1H-pyrido[3,4-b]indol-1-yl)phenoxy)methyl)pyridin-2-yl)methoxy)acetamido)-3,3-dimethylbutanoyl)-4-hydroxy-N-(4-(4-methylthiazol-5-yl)benzyl)pyrrolidine-2-carboxamide] | •• | 0.6
Cc1ncsc1-c1ccc(CNC(=O)[C@@H]2C[C@@H](O)CN2C(=O)[C@@H](NC(=O)COCc2ccc(OCCOc3cc(F)c([C@@H]4c5[nH]c6ccccc6c5C[C@@H](C)N4CC(C)(C)F)c(F)c3)cc2)C(C)(C)C)cc1 [Example 4, (2S,4R)-1-((S)-2-(2-((4-(2-(3,5-Difluoro-4-((1R,3R)-2-(2-fluoro-2-methylpropyl)-3-methyl-2,3,4,9-tetrahydro-1H-pyrido[3,4-b]indol-1-yl)phenoxy)ethoxy)benzyl)oxy)acetamido)-3,3-dimethylbutanoyl)-4-hydroxy-N-(4-(4-methylthiazol-5-yl)benzyl)pyrrolidine-2-carboxamide] | • | 2.1
Cc1ncsc1-c1ccc(CNC(=O)[C@@H]2C[C@@H](O)CN2C(=O)[C@@H](NC(=O)COCCOCCOCC(=O)Nc2ccc([C@@H]3c4[nH]c5ccccc5c4C[C@@H](C)N3CC(C)(C)F)cc2)C(C)(C)C)cc1 [Example 57, (2S,4R)-1-((S)-2-(tert-butyl)-14-((4-((1R,3R)-2-(2-fluoro-2-methylpropyl)-3-methyl-2,3,4,9-tetrahydro-1H-pyrido[3,4-b]indol-1-yl)phenyl)amino)-4,14-dioxo-6,9,12-trioxa-3-azatetradecanoyl)-4-hydroxy-N-(4-(4-methylthiazol-5-yl)benzyl)pyrrolidine-2-carboxamide, Trifluoroacetic Acid] | • | 0.9
Cc1ncsc1-c1ccc(CNC(=O)[C@@H]2C[C@@H](O)CN2C(=O)[C@@H](NC(=O)c2ccc(N3CCN(CCNC(=O)/C=C/c4cc(F)c([C@@H]5c6[nH]c7ccccc7c6C[C@@H](C)N5CC(C)(C)F)c(F)c4)CC3)cc2)C(C)(C)C)cc1 [Example 67, (2S,4R)-1-((S)-2-(4-(4-(2-((E)-3-(3,5-difluoro-4-((1R,3R)-2-(2-fluoro-2-methylpropyl)-3-methyl-2,3,4,9-tetrahydro-1H-pyrido[3,4-b]indol-1-yl)phenyl)acrylamido)ethyl)piperazin-1-yl)benzamido)-3,3-dimethylbutanoyl)-4-hydroxy-N-(4-(4-methylthiazol-5-yl)benzyl)pyrrolidine-2-carboxamide, Trifluoroacetic Acid] | • | 4.5
Cc1ncsc1-c1ccc(CNC(=O)[C@@H]2C[C@@H](O)CN2C(=O)[C@@H](NC(=O)CCCCNC(=O)/C=C/c2cc(F)c([C@@H]3c4[nH]c5ccccc5c4C[C@@H](C)N3CC(C)(C)F)c(F)c2)C(C)(C)C)cc1 [Example 60, (2S,4R)-1-((S)-2-(5-((E)-3-(3,5-difluoro-4-((1R,3R)-2-(2-fluoro-2-methylpropyl)-3-methyl-2,3,4,9-tetrahydro-1H-pyrido[3,4-b]indol-1-yl)phenyl)acrylamido)pentanamido)-3,3-dimethylbutanoyl)-4-hydroxy-N-(4-(4-methylthiazol-5-yl)benzyl)pyrrolidine-2-carboxamide, Trifluoroacetic Acid] | • | 0.5
Cc1ncsc1-c1ccc(CNC(=O)[C@@H]2C[C@@H](O)CN2C(=O)[C@@H](NC(=O)COCCOCCOCCOc2cc(F)c([C@@H]3c4[nH]c5ccccc5c4C[C@@H](C)N3CC(F)(F)CO)c(F)c2)C(C)(C)C)cc1 [Example 71, (2S,4R)-1-((S)-2-(tert-Butyl)-14-(4-((1R,3R)-2-(2,2-difluoro-3-hydroxypropyl)-3-methyl-2,3,4,9-tetrahydro-1H-pyrido[3,4-b]indol-1-yl)-3,5-difluorophenoxy)-4-oxo-6,9,12-trioxa-3-azatetradecanoyl)-4-hydroxy-N-(4-(4-methylthiazol-5-yl)benzyl)pyrrolidine-2-carboxamide] | • | 0.5
Cc1ncsc1-c1ccc(CNC(=O)[C@@H]2C[C@@H](O)CN2C(=O)[C@@H](NC(=O)COCCOCCOCCOCCOCC(=O)Nc2ccc([C@@H]3c4[nH]c5ccccc5c4C[C@@H](C)N3CC(C)(C)F)cc2)C(C)(C)C)cc1 [Example 56, N^1-(4-((1R,3R)-2-(2-fluoro-2-methylpropyl)-3-methyl-2,3,4,9-tetrahydro-1H-pyrido[3,4-b]indol-1-yl)phenyl)-N^17—((S)-1-((2S,4R)-4-hydroxy-2-((4-(4-methylthiazol-5-yl)benzyl)carbamoyl)pyrrolidin-1-yl)-3,3-dimethyl-1-oxobutan-2-yl)-3,6,9,12,15-pentaoxaheptadecanediamide, Trifluoroacetic Acid] | •• | 1.5
Cc1ncsc1-c1ccc(CNC(=O)[C@@H]2C[C@@H](O)CN2C(=O)[C@@H](NC(=O)COCCO[C@H](C)[C@@H](C)OCCOc2cc(F)c([C@@H]3c4[nH]c5ccccc5c4C[C@@H](C)N3CC(C)(C)F)c(F)c2)C(C)(C)C)cc1 [Example 80, (2S,4R)-1-((2S,10R,11R)-2-(tert-butyl)-14-(3,5-difluoro-4-((1R,3R)-2-(2-fluoro-2-methylpropyl)-3-methyl-2,3,4,9-tetrahydro-1H-pyrido[3,4-b]indol-1-yl)phenoxy)-10,11-dimethyl-4-oxo-6,9,12-trioxa-3-azatetradecanoyl)-4-hydroxy-N-(4-(4-methylthiazol-5-yl)benzyl)pyrrolidine-2-carboxamide] | •• | 0.7
Cc1ncsc1-c1ccc(CNC(=O)[C@@H]2C[C@@H](O)CN2C(=O)[C@@H](NC(=O)COCCOCCOCCOCC(=O)Nc2ccc([C@@H]3c4[nH]c5ccccc5c4C[C@@H](C)N3CC(C)(C)F)cc2)C(C)(C)C)cc1 [Example 55, N^1-(4-((1R,3R)-2-(2-fluoro-2-methylpropyl)-3-methyl-2,3,4,9-tetrahydro-1H-pyrido[3,4-b]indol-1-yl)phenyl)-N^14—((S)-1-((2S,4R)-4-hydroxy-2-((4-(4-methylthiazol-5-yl)benzyl)carbamoyl)pyrrolidin-1-yl)-3,3-dimethyl-1-oxobutan-2-yl)-3,6,9,12-tetraoxatetradecanediamide, Trifluoroacetic Acid] | • | 1.2
Cc1ncsc1-c1ccc(CNC(=O)[C@@H]2C[C@@H](O)CN2C(=O)[C@@H](NC(=O)COc2ccc(OCCNC(=O)/C=C/c3cc(F)c([C@@H]4c5[nH]c6ccccc6c5C[C@@H](C)N4CC(C)(C)F)c(F)c3)cc2)C(C)(C)C)cc1 [Example 61, (2S,4R)-1-((S)-2-(2-(4-(2-((E)-3-(3,5-difluoro-4-((1R,3R)-2-(2-fluoro-2-methylpropyl)-3-methyl-2,3,4,9-tetrahydro-1H-pyrido[3,4-b]indol-1-yl)phenyl)acrylamido)ethoxy)phenoxy)acetamido)-3,3-dimethylbutanoyl)-4-hydroxy-N-(4-(4-methylthiazol-5-yl)benzyl)pyrrolidine-2-carboxamide, Trifluoroacetic Acid] | •• | 0.7
